Measured values as given in PubChem BioAssay (NCI).
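All cell lines were grown in 96-well plates and treated with compound for 48 hours. Definition used: TGI = concentration required for complete inhibition of growth.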

Tests used:
Experiment in all cases: inhibition of tumour cell growth, NCI panel, 48 h
HCT-15 colon = test system: HCT-15 colon
M19-MEL melanoma = test system: M19-MEL melanoma
SF-295 CNS = test system: SF-295 CNS
SW-620 colon = test system: SW-620 colon
SR leukemia = test system: SR leukemia
A549 NSCLC = test system: A549 NSCLC
NCI-H23 lung = test system: NCI-H23 lung
SNB-19 CNS = test system: SNB-19 CNS
SF-268 CNS = test system: SF-268 CNS
SF-539 CNS = test system: SF-539 CNS
OVCAR-3 ovarian = test system: OVCAR-3 ovarian
HT29 colon = test system: HT29 colon
U251 CNS = test system: U251 CNS
EKVX NSCLC = test system: EKVX NSCLC
LXFL 529 NSCLC = test system: LXFL 529 NSCLC
KM12 colon = test system: KM12 colon
IGROV1 ovarian = test system: IGROV1 ovarian
UACC-62 melanoma = test system: UACC-62 melanoma
CAKI-1 renal = test system: CAKI-1 renal
MALME-3M melanoma = test system: MALME-3M melanoma
NCI-H522 lung = test system: NCI-H522 lung
HL-60(TB) leukemia = test system: HL-60(TB) leukemia
M14 melanoma = test system: M14 melanoma
OVCAR-5 ovarian = test system: OVCAR-5 ovarian
HOP-62 NSCLC = test system: HOP-62 NSCLC
OVCAR-4 ovarian = test system: OVCAR-4 ovarian
SK-MEL-5 melanoma = test system: SK-MEL-5 melanoma
RXF-631 renal = test system: RXF-631 renal
MOLT-4 leukemia = test system: MOLT-4 leukemia
DLD-1 colon = test system: DLD-1 colon
LOX IMVI melanoma = test system: LOX IMVI melanoma
HCT-116 colon = test system: HCT-116 colon
A498 renal = test system: A498 renal
OVCAR-8 ovarian = test system: OVCAR-8 ovarian
SNB-78 CNS = test system: SNB-78 CNS
KM20L2 colon = test system: KM20L2 colon
TK-10 renal = test system: TK-10 renal
SK-MEL-2 melanoma = test system: SK-MEL-2 melanoma
ACHN renal = test system: ACHN renal
UO-31 renal = test system: UO-31 renal
UACC-257 melanoma = test system: UACC-257 melanoma
NCI-H226 lung = test system: NCI-H226 lung
K-562 leukemia = test system: K-562 leukemia
HCC-2998 colon = test system: HCC-2998 colon
786-0 renal = test system: 786-0 renal
CCRF-CEM leukemia = test system: CCRF-CEM leukemia
COLO 205 colon = test system: COLO 205 colon
SK-OV-3 ovarian = test system: SK-OV-3 ovarian
RPMI-8226 leukemia = test system: RPMI-8226 leukemia
NCI-H460 lung = test system: NCI-H460 lung
SN12C renal = test system: SN12C renal

## COC(=O)[C@]1(C)CCC[C@@]2(C)C1CCC1=CC3(C(C)C)CCC12OO3 (stereo partly specified)
HCT-15 colon
  TGI: > 100 µM
M19-MEL melanoma
  TGI: > 100 µM
SF-295 CNS
  TGI: > 100 µM
SW-620 colon
  TGI: > 100 µM
SR leukemia
  TGI: > 100 µM
A549 NSCLC
  TGI: > 100 µM
NCI-H23 lung
  TGI: > 100 µM
SNB-19 CNS
  TGI: > 100 µM
SF-268 CNS
  TGI: > 100 µM
SF-539 CNS
  TGI: > 100 µM
OVCAR-3 ovarian
  TGI: > 100 µM
HT29 colon
  TGI: > 100 µM
U251 CNS
  TGI: > 100 µM
EKVX NSCLC
  TGI: > 100 µM
LXFL 529 NSCLC
  TGI: > 100 µM
KM12 colon
  TGI: > 100 µM
IGROV1 ovarian
  TGI: > 100 µM
UACC-62 melanoma
  TGI: > 100 µM
CAKI-1 renal
  TGI: > 100 µM
MALME-3M melanoma
  TGI: > 100 µM
NCI-H522 lung
  TGI: > 100 µM
HL-60(TB) leukemia
  TGI: 37.8 µM
M14 melanoma
  TGI: > 100 µM
OVCAR-5 ovarian
  TGI: > 100 µM
HOP-62 NSCLC
  TGI: > 100 µM
OVCAR-4 ovarian
  TGI: > 100 µM
SK-MEL-5 melanoma
  TGI: > 100 µM
RXF-631 renal
  TGI: > 100 µM
MOLT-4 leukemia
  TGI: > 100 µM
DLD-1 colon
  TGI: > 100 µM
LOX IMVI melanoma
  TGI: > 100 µM
HCT-116 colon
  TGI: > 100 µM
A498 renal
  TGI: > 100 µM
OVCAR-8 ovarian
  TGI: > 100 µM
SNB-78 CNS
  TGI: > 100 µM
KM20L2 colon
  TGI: > 100 µM
TK-10 renal
  TGI: > 100 µM
SK-MEL-2 melanoma
  TGI: > 100 µM
ACHN renal
  TGI: > 100 µM
UO-31 renal
  TGI: > 100 µM
UACC-257 melanoma
  TGI: > 100 µM
NCI-H226 lung
  TGI: > 100 µM
K-562 leukemia
  TGI: > 100 µM
HCC-2998 colon
  TGI: > 100 µM
786-0 renal
  TGI: > 100 µM
CCRF-CEM leukemia
  TGI: > 100 µM
COLO 205 colon
  TGI: > 100 µM
SK-OV-3 ovarian
  TGI: > 100 µM
RPMI-8226 leukemia
  TGI: > 100 µM
NCI-H460 lung
  TGI: > 100 µM
SN12C renal
  TGI: > 100 µM
